Laboratory results: patent publication US9670227B2, “Thienopyrimidine derivatives, a process for their preparation and pharmaceutical compositions containing them” (LES LABORATOIRES SERVIER, priority 2013, dated 2017)

What follows are compounds tested against Mcl-1 protein (UniProtKB primary accession number: Q07820) (Homo sapiens, UniProt Q07820) (assay: Inhibition of Mcl-1 by fluorescence polarisation, Method 1). Conditions: fluorescence polarisation; Method 1, or Method 2; read-out: IC50 (M) Mcl-1 FP.
Format: binding
In short: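 FP competition, 11-point compound titration in 5% final DMSO; protein and labelled probe at 5 nM and 1 nM final in HEPES/NaCl/Tween 20 buffer, pH 7.4.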

Mcl-1 protein, sequence (Q07820 whole entry): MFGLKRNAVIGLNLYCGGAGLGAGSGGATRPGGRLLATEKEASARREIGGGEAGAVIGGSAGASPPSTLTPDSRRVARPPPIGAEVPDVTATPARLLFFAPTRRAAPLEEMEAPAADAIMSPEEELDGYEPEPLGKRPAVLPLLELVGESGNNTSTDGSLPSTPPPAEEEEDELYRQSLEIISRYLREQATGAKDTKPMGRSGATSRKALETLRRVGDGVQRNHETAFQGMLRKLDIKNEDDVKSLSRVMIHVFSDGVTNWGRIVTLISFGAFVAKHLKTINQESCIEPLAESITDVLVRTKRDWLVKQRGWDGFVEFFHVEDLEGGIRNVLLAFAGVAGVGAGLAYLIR

| Compound | IC50 |
| --- | --- |
| CC(C)=Cc1sc2ncnc(OC(Cc3ccccc3)C(=O)O)c2c1-c1ccc(OCCN2CCN(C)CC2)c(Cl)c1C [Example 494, (2R)-2-{[(5Sa)-5-{3-chloro-2-methyl-4-[2-(4-methylpiperazin-1-yl)ethoxy]phenyl}-6-(2-methylprop-1-en-1-yl)thieno[2,3-d]pyrimidin-4-yl]oxy}-3-phenylpropanoic acid] | 4.4e-08 M |
| Cc1c(-c2c(-c3ccccc3)sc3ncnc(OC(Cc4ccccc4)C(=O)O)c23)ccc(OCCN2CCN(C)CC2)c1Cl [Example 502, (2R)-2-[((5Sa)-5-{3-chloro-2-methyl-4-[2-(4-methylpiperazin-1-yl)ethoxy]phenyl}-6-phenylthieno[2,3-d]pyrimidin-4-yl)oxy]-3-phenylpropanoic acid] | 1.9e-08 M |
| Cc1c(-c2c(-c3cccs3)sc3ncnc(OC(Cc4ccccc4)C(=O)O)c23)ccc(OCCN2CCN(C)CC2)c1Cl [Example 505, (2R)-2-{[(5Sa)-5-{3-chloro-2-methyl-4-[2-(4-methylpiperazin-1-yl)ethoxy]phenyl}-6-(thiophen-2-yl)thieno[2,3-d]pyrimidin-4-yl]oxy}-3-phenylpropanoic acid] | 5.8e-08 M |
| Cc1c(-c2c(-c3ccnn3C)sc3ncnc(OC(Cc4ccccc4)C(=O)O)c23)ccc(OCCN2CCN(C)CC2)c1Cl [Example 508, (2R)-2-{[(5Sa)-5-{3-chloro-2-methyl-4-[2-(4-methylpiperazin-1-yl)ethoxy]phenyl}-6-(1-methyl-1H-pyrazol-5-yl)thieno[2,3-d]pyrimidin-4-yl]oxy}-3-phenylpropanoic acid] | 3.7e-07 M |
| Cc1sccc1-c1sc2ncnc(OC(Cc3ccccc3)C(=O)O)c2c1-c1ccc(OCCN2CCN(C)CC2)c(Cl)c1C [Example 511, (2R)-2-{[(5Sa)-5-{3-chloro-2-methyl-4-[2-(4-methylpiperazin-1-yl)ethoxy]phenyl}-6-(2-methylthiophen-3-yl)thieno[2,3-d]pyrimidin-4-yl]oxy}-3-phenylpropanoic acid] | 4.8e-07 M |
| Cc1c(-c2c(-c3cnn(C)c3)sc3ncnc(OC(Cc4ccccc4)C(=O)O)c23)ccc(OCCN2CCN(C)CC2)c1Cl [Example 513, (2R)-2-{[(5Sa)-5-{3-chloro-2-methyl-4-[2-(4-methylpiperazin-1-yl)ethoxy]phenyl}-6-(1-methyl-1H-pyrazol-4-yl)thieno[2,3-d]pyrimidin-4-yl]oxy}-3-phenylpropanoic acid] | 3.7e-07 M |
| Cc1ccsc1-c1sc2ncnc(OC(Cc3ccccc3)C(=O)O)c2c1-c1ccc(OCCN2CCN(C)CC2)c(Cl)c1C [Example 517, (2R)-2-{[(5Sa)-5-{3-chloro-2-methyl-4-[2-(4-methylpiperazin-1-yl)ethoxy]phenyl}-6-(3-methylthiophen-2-yl)thieno[2,3-d]pyrimidin-4-yl]oxy}-3-phenylpropanoic acid] | 5.1e-07 M |
| CC#Cc1sc2ncnc(OC(Cc3ccccc3)C(=O)O)c2c1-c1ccc(OCCN2CCN(C)CC2)c(Cl)c1C [Example 519, (2R)-2-{[(5Sa)-5-{3-chloro-2-methyl-4-[2-(4-methylpiperazin-1-yl)ethoxy]phenyl}-6-(prop-1-yn-1-yl)thieno[2,3-d]pyrimidin-4-yl]oxy}-3-phenylpropanoic acid] | 2.3e-08 M |
| Cc1c(-c2c(C#CC3CC3)sc3ncnc(OC(Cc4ccccc4)C(=O)O)c23)ccc(OCCN2CCN(C)CC2)c1Cl [Example 520, (2R)-2-{[(5Sa)-5-{3-chloro-2-methyl-4-[2-(4-methylpiperazin-1-yl)ethoxy]phenyl}-6-(cyclopropylethynyl)thieno[2,3-d]pyrimidin-4-yl]oxy}-3-phenylpropanoic acid] | 4.1e-08 M |
| CC(=O)c1sc2ncnc(OC(Cc3ccccc3)C(=O)O)c2c1-c1ccc(OCCN2CCN(C)CC2)c(Cl)c1C [Example 522, (2R)-2-[(6-acetyl-(5Sa)-5-{3-chloro-2-methyl-4-[2-(4-methylpiperazin-1-yl)ethoxy]phenyl}thieno[2,3-d]pyrimidin-4-yl)oxy]-3-phenylpropanoic acid] | 7.5e-08 M |

The next lines start with the values.

| IC50 | Compound |
| --- | --- |
| 5e-09 M | CC/C=C\c1sc2ncnc(O[C@H](Cc3ccccc3)C(=O)O)c2c1-c1ccc(OCCN2CCN(C)CC2)c(Cl)c1C [Example 493, (2R)-2-[(6-[(1Z)-but-1-en-1-yl]-(5Sa)-5-{3-chloro-2-methyl-4-[2-(4-methylpiperazin-1-yl)ethoxy]phenyl}thieno[2,3-d]pyrimidin-4-yl)oxy]-3-phenylpropanoic acid] |
| 2e-07 M | Cc1c(-c2c(-c3cc4ccccc4o3)sc3ncnc(OC(Cc4ccccc4)C(=O)O)c23)ccc(OCCN2CCN(C)CC2)c1Cl [Example 496, (2R)-2-{[6-(1-benzofuran-2-yl)-(5Sa)-5-{3-chloro-2-methyl-4-[2-(4-methylpiperazin-1-yl)ethoxy]phenyl}thieno[2,3-d]pyrimidin-4-yl]oxy}-3-phenylpropanoic acid] |
| 7.4e-08 M | Cc1c(-c2c(-c3ccc(F)cc3)sc3ncnc(OC(Cc4ccccc4)C(=O)O)c23)ccc(OCCN2CCN(C)CC2)c1Cl [Example 498, (2R)-2-{[(5Sa)-5-{3-chloro-2-methyl-4-[2-(4-methylpiperazin-1-yl)ethoxy]phenyl}-6-(4-fluorophenyl)thieno[2,3-d]pyrimidin-4-yl]oxy}-3-phenylpropanoic acid] |
| 2.9e-08 M | Cc1c(-c2c(-c3ccco3)sc3ncnc(OC(Cc4ccccc4)C(=O)O)c23)ccc(OCCN2CCN(C)CC2)c1Cl [Example 504, (2R)-2-{[(5Sa)-5-{3-chloro-2-methyl-4-[2-(4-methylpiperazin-1-yl)ethoxy]phenyl}-6-(furan-2-yl)thieno[2,3-d]pyrimidin-4-yl]oxy}-3-phenylpropanoic acid] |
| 2.2e-07 M | Cc1c(-c2c(-c3ccncc3)sc3ncnc(OC(Cc4ccccc4)C(=O)O)c23)ccc(OCCN2CCN(C)CC2)c1Cl [Example 507, (2R)-2-{[(5Sa)-5-{3-chloro-2-methyl-4-[2-(4-methylpiperazin-1-yl)ethoxy]phenyl}-6-(pyridin-4-yl)thieno[2,3-d]pyrimidin-4-yl]oxy}-3-phenylpropanoic acid] |
| 8.4e-08 M | Cc1nc(-c2sc3ncnc(OC(Cc4ccccc4)C(=O)O)c3c2-c2ccc(OCCN3CCN(C)CC3)c(Cl)c2C)cs1 [Example 515, (2R)-2-{[(5Sa)-5-{3-chloro-2-methyl-4-[2-(4-methylpiperazin-1-yl)ethoxy]phenyl}-6-(2-methyl-1,3-thiazol-4-yl)thieno[2,3-d]pyrimidin-4-yl]oxy}-3-phenylpropanoic acid] |
| 2.4e-07 M | Cc1c(-c2c(C#N)sc3ncnc(OC(Cc4ccccc4)C(=O)O)c23)ccc(OCCN2CCN(C)CC2)c1Cl [Example 521, (2R)-2-[((5Sa)-5-{3-chloro-2-methyl-4-[2-(4-methylpiperazin-1-yl)ethoxy]phenyl}-6-cyanothieno[2,3-d]pyrimidin-4-yl)oxy]-3-phenylpropanoic acid] |

Same assay, conditions: partial inhibitors; @ 10 uM test compound

| percentage fluorescence polarisation inhibition, Mcl-1 FP | Compound |
| --- | --- |
| 28.3% @ 10 uM | CC#Cc1sc2ncnc(O[C@@H](Cc3cccc4occc34)C(=O)O)c2c1-c1ccc(OCCN2CCN(C)CC2)c(Cl)c1C [Example 491, (2S)-3-(1-benzofuran-4-yl)-2-{[(5Ra)-5-{3-chloro-2-methyl-4-[2-(4-methylpiperazin-1-yl)ethoxy]phenyl}-6-(prop-1-yn-1-yl)thieno[2,3-d]pyrimidin-4-yl]oxy}propanoic acid] |
